Source: ChEMBL document CHEMBL5727130, “Pyridone derivative, pharmaceutical containing the same and methods of use thereof” (2018)

Test: Inhibition Assay: The TACE inhibition test was carried out by measuring TACE activity in the presence and the absence of the test substance using the thus-obtained TACE as an enzyme, and a fluorescent synthetic substrate Nma(N-methylanthranilic acid)-Leu-Ala-Gln-Ala-Val-Arg-Ser-Ser-Lys(Dnp(dinitrophenyl))-D-Arg-NH2 (SEQ ID NO: 1) including the TACE-cleaved sequence of a membrane-bound TNF as a substrate. The TACE inhibition test method is shown below. Namely, 90 μL of an enzyme solution prepared with an assay buffer A (50 mM tris-hydrochloric acid buffer (pH 7.5) including 200 mM sodium chloride, 5 mM calcium chloride, 10 μM zinc sulfate, and 2 mg/mL bovine serum albumin) and 90 μL of a fluorescent synthetic substrate prepared with an assay buffer B (50 mM tris-hydrochloric acid buffer (pH 7.5) including 200 mM sodium chloride, 5 mM calcium chloride, 10 μM zinc sulfate, and 0.05% PLURONIC F-68) were mixed together, and reacted at 37° C. for 1.5 hours. Enzyme activity was then determined by measuring with a fluorescence intensity meter (Labsystems, Fluoroskan Ascent) at an excitation wavelength of 355 nm and a measurement wavelength of 460 nm.

| SMILES | IC50 [nM] |
| --- | --- |
| Cc1cccn(CC2(c3ccc(F)c(F)c3)NC(=O)NC2=O)c1=O (configuration not stated) | < 100 |
| Cc1cccn(CC2(c3ccc(Oc4ccc(Cl)cc4)cc3)NC(=O)NC2=O)c1=O (configuration not stated) | < 100 |
